This is an account of results in patent US6410578B1, “Benzazole compounds and their use” (Novartis Animal Health US, Inc., priority 1998, dated 2002).

Experiment [1] deals with Rhipicephalus sanguineus (nymphs). In words: Arena test for vermin-repellent substances, Example C. The note with it: in vitro arena test, ca. 40 to 50 nymphs; for duration of repellent/deterrent action compared with DEET: DEET as standard; for repellent/deterrent action: evaluation of video images. As for the experimental part:
(§1) This method is carried out in titre plates having 6 wells with a cross-section of 5 cm each, using a computer-supported video system. Each well of the titre plate is lined with a circular filter paper or another suitable carrier material. The substance of formula I to be tested is dissolved in methanol, acetonitrile or another suitable solvent, with ultrasound treatment and heating being employed for poorly-soluble substances. In an amount of 1 to 100 mg/cm^2, the dissolved test substance is placed in the centre of the filter paper on a quadrant or circular area of ca. 2.4 cm^2 radius. 4 of the 6 wells are filled with different test substances or with the same test substance in different dilutions (e.g. 1, 3.2, 5, 10 and 20 mg/cm^2). The 5th well is treated with DEET (N,N-diethyl-m-toluamide) as standard substance. The 6th well is filled with the pure solvent and serves as a control. 60 to 100 larvae or 25 to 50 nymphs or 10 to 25 adults of the parasite to be tested, e.g. ticks, are added to each filter paper, and the system is covered with a pane of glass and positioned under a video camera.
(§2) At intervals of 5 seconds, the video camera takes individual pictures of all 6 wells. For a qualitative evaluation, these images are observed in a time-lapse as a continuous film, optically following the movements of the parasites on the filter paper and comparing them with the movements in the control well no. 6 or with the standard in the 5th well. A qualitative observation is thus made as to whether the test parasites move evenly over the whole surface of the filter paper and ignore the test substance, or whether and over what period they avoid the treated zone, and what influence the dilution of the test substance has on the behaviour of the test parasites. In this way, neutral and repellent substances are determined. At the same time, the duration of activity of the test substance is determined and compared with that of the standard. By plotting all the images for each individual well over one another, different areas of density are obtained. This represents the frequency at which the parasites visit certain places. This frequency is evaluated statistically and thus quantitatively by the Willcoxon method in a comparison with the control and with the standard.
In vitro Test; Test Animal: Rhipicephalus sanguineus (Nymphs)
The test is carried out analogously to example B, with ca. 40 to 50 nymphs.

In experiment [2] the test system is Boophilus microplus Biarra (larvae). In words: Arena test for vermin-repellent substances, Example A. The note with it: in vitro arena test, ca. 60 to 100 larvae per well; for duration of repellent/deterrent action compared with DEET: DEET as standard; for repellent/deterrent action: evaluation of video images. The procedure:
as §1, §2
In vitro Test; Test Animal: Boophilus microplus Biarra (Larvae)
The test is carried out as described above, with ca. 60 to 100 larvae being added per well.

In experiment [3] the test system is Amblyomma hebraeum or variegatum (nymphs). In words: Arena test for vermin-repellent substances, Example B. The note with it: in vitro arena test, ca. 25 nymphs per well; for duration of repellent/deterrent action compared with DEET: DEET as standard; for repellent/deterrent action: evaluation of video images. As for the experimental part: as §1, §2
In vitro Test; Test Animal: Amblyomma hebraeum or variegatum (Nymphs)
The test is carried out as described above, with ca. 25 nymphs being added per well.

`COc1cc2nc(C)sc2cc1OC` [5,6-dimethoxy-2-methylbenzothiazole]: the “duration of repellent/deterrent action compared with DEET” value in experiment [1], in experiment [2] and in experiment [3] was “lasts considerably longer than that of DEET” throughout. Moreover, the repellent/deterrent action result in experiment [1], in experiment [2] and in experiment [3] was “almost complete repellent/deterrent action” in each case.

For `Cc1nc2cc(N)ccc2s1` [5-amino-2-methylbenzothiazole], the “duration of repellent/deterrent action compared with DEET” value in experiment [1], in experiment [2] and in experiment [3] was “lasts considerably longer than that of DEET” each time. Moreover, the repellent/deterrent action result in experiment [1], in experiment [2] and in experiment [3] was “almost complete repellent/deterrent action” in each case.
